We go through four compounds from BindingDB's records for patent US9290451 (Hoffmann-La Roche Inc, 2016).

Where only a bound is given, the exact number is not on record here.

For one assay, the target named is Cannabinoid receptor 1 (Homo sapiens, UniProt P21554). The assay is described as follows: cAMP Assay. The note with it: 37 °C. Here is the method: (§1) CHO cells expressing human CB1 or CB2 receptors are seeded 17-24 hours prior to the experiment 50.000 cells per well in a black 96 well plate with flat clear bottom (Corning Costar #3904) in DMEM (Invitrogen No. 31331), 1×HT supplement, with 10% fetal calf serum and incubated at 5% CO2 and 37° C. in a humidified incubator. The growth medium was exchanged with Krebs Ringer Bicarbonate buffer with 1 mM IBMX and incubated at 30° C. for 30 min Compounds were added to a final assay volume of 100 ul and incubated for 30 min at 30° C. Using the cAMP-Nano-TRF detection kit the assay (Roche Diagnostics) was stopped by the addition of 50 ul lysis reagent (Tris, NaCl, 1.5% Triton X100, 2.5% NP40, 10% NaN3) and 50 ul detection solutions (20 uM mAb Alexa700-cAMP 1:1, and 48 uM Ruthenium-2-AHA-cAMP) and shaken for 2 h at room temperature. The time-resolved energy transfer is measured by a TRF reader (Evotec Technologies GmbH), equipped with a ND:YAG laser as excitation source. The plate is measured twice with the excitation at 355 nm and at the emission with a delay of 100 ns and a gate of 100 ns, total exposure time 10 s at 730 (bandwidth 30 nm) or 645 nm (bandwidth 75 nm), respectively. The FRET signal is calculated.
Chain of Cannabinoid receptor 1 (P21554 whole entry): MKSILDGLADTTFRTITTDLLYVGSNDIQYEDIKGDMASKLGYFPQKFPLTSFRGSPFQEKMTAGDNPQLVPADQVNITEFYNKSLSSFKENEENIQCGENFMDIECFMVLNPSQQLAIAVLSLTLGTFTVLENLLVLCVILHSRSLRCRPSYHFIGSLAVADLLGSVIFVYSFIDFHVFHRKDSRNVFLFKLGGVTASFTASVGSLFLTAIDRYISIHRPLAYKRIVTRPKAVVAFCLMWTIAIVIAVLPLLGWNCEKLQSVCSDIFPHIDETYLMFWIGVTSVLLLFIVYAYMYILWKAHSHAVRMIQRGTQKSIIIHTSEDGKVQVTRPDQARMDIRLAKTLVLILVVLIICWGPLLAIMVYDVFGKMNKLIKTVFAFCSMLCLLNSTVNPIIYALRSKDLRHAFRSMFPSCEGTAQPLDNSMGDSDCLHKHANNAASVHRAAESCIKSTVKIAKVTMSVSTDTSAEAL

Another assay concerns the target Cannabinoid receptor 2 (Homo sapiens, UniProt P34972). The assay is described as follows: cAMP Assay. Conditions: 37 °C. Here is the method:
as §1

Chain of Cannabinoid receptor 2 (P34972 whole entry): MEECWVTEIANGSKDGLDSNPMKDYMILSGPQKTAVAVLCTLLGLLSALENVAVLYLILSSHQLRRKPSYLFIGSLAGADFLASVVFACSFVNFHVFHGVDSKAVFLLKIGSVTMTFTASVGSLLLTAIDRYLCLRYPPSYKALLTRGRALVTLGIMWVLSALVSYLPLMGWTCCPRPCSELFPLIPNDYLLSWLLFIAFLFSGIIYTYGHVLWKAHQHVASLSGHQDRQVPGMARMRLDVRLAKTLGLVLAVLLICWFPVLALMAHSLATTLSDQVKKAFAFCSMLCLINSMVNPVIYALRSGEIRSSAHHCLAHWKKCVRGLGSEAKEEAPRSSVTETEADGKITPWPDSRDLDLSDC

For `O=C(c1ccc(C2CC2)c(-c2cccc(Cl)c2)n1)N1CCS(=O)(=O)CC1` [US9290451, 48], the EC50 at Cannabinoid receptor 1 is more than 10000 nM; on Cannabinoid receptor 2, 477 nM.
The matching figures for `CC(C)(CO)NC(=O)c1ccc(NC2CC2)c(OCC2CC2)n1` [US9290451, 159]: more than 10000 nM and 780 nM.
The matching figures for `O=C(c1ccc(C2CCCC2)c(OCC2CC2)n1)N1CCS(=O)(=O)CC1` [US9290451, 39]: more than 10000 nM and 303 nM.
In the same order, the values of `Cc1cnc(C(C)(C)NC(=O)c2ccc(N3CC(F)(F)C3)c(OCC3CC3)n2)s1` [US9290451, 353] are more than 10000 nM and 4.9 nM.
